In patent publication US20250381274A1 (priority 2022, published 2025):
Entries after “also recorded” stand apart in the source; their conditions may differ. Like-named read-outs stand apart in the source and are kept apart here.

Key:
[1] = test system: corneal buttons; parameters: species or system rabbit; conditions: for equilibrium modulus change vs paired control (words): Dresden protocol (riboflavin/R5P + UVA); for viscoelastic ratio change vs paired control (words): Dresden protocol (riboflavin/R5P + UVA) vs R5P-exposed-only control
Protocol: • 3 rabbits, (n=8 pairs of 3 mm biopsy punched corneal buttons) • Laser Treatments: • Fidelity II, 1069 nm, 450 mW • Focusing: Marker/spark around, not touching the tissue • Objective: ZEISS 40X, NA=0.1463 • Z: increments 20 μm, 5 layers (several intervals) • 1stlayer 15 μm below surface of focus sparking • XY: 10 μm zigzag grid, 3 mm radius circle • With ˜12 gram compression • Motor speed 2.6 mm/s, full circle treatments: ˜25*5 mins • Sample Preparation: • −3 mm biopsy punch (1BT) • not connected to IV system • Prior to LT: 30 mins in 20% w/w Dextran 500 in PBS • 30 mins in 20% w/w ribose in DPBS (˜1.7M) • Post LT: Trypan blue is used to mark endothelium side • Imaged on the same day in DPBS • Overnight storage in DPBS in 4C fridge • 3 hrs prior to indentation, in room temp PBS • Piuma nano-indentation: • For each cornea button, the average of up to 16 indentations are acquired as
• 3 rabbits, (n=10 pairs of 3 mm biopsy punched corneal buttons) • 3 mm biopsy punch • not connected to IV system • Treatment Protocol-1 hr submerged in 20% w/v Ribose for all samples • 1 hr of UV-A lamp irradiation (control was not under UV) • Post Treatment Trypan blue is used to mark endothelium side • Imaged on the same day in DPBS • Overnight storage in DPBS in 4C fridge • 3 hrs prior to indentation, in room temp PBS • Piuma nano-indentation: • For each cornea button, the average of up to 16 indentations are acquired as representative modulus • The average of the representative modulus are presented in appended FIGS. 1-25.
Nano-Indentation: The corneal buttons were stored in PBS in a 4C fridge overnight for hydration equilibrium. Indentations of 5 μm depth using 29-35 μm diameter spherical indenters were performed on the anterior surface of the cornea buttons to acquire 25-second load-relaxation curves. For each button, the average of up to 16 indentations was used as the representative result. The equilibrium modulus and the viscoelastic ratio, defined as equilibrium modulus over instantaneous modulus, were calculated and compared.
Nanoindentation: Indentations were performed on the anterior surface of the cornea buttons. The equilibrium modulus E∞, instantaneous modulus Eo, and the viscoelastic ratio E∞/Eo, were calculated and compared.
After overnight incubation in PBS at 4C to reach equilibrium hydration, corneal buttons in Group A were allowed to return to room temperature the next morning after the respective treatment days while glued to the bottom of a petri-dish with the anterior surface of the corneal button facing upward. A displacement-controlled indenter (Piuma, Optics 11, Amsterdam, The Netherlands) was used to perform micro-indentations on top of the sample surface submerged in PBS; for each sample, multiple tests were performed following an array of 16 equally spaced (4×4) contact points with a spacing of 100 μm to 150 μm, covering roughly a 0.4×0.4 mm^2 area at the center of each corneal button. A spherical glass probe with a 34 μm radius and 0.2 N/m stiffness was used for samples in Group 1A; another spherical glass probe with a 25.5 μm radius and 4.09 N/m stiffness was used for Group 1B, 1C, 1D, and 2C. The indentation process at each contact point was comprised of three consecutive steps of loading Piezo movement of 5 μm for 2 seconds, holding time of 5 s, and unloading for 2 seconds. The load-relaxation curves obtained after indenting each point were then processed using a viscoelastic model to obtain equilibrium modulus and viscoelastic ratio following a fitting algorithm developed by Oyen.

[2] = test system: corneal tissues; experiment: Multiphoton/confocal imaging: autofluorescence and second harmonic generation signal; parameters: species or system rabbit; conditions: anterior 100 μm
Source text: • The grey value of the top 100 μm (11 Z-stacks) of the cornea button was summed; • The average of the grey value summations are presented in appended FIGS. 1-25. • […] • The average of the grey value summations and Representative images at ˜600*600*100 μm in x, y, z are presented in appended FIGS. 1-25. The autofluorescence and second harmonic generation (SHG) signals of the corneal tissues in Group A were investigated to reveal the presence of CxLs and structural changes in collagenous ECM after hydration equilibrium in PBS on the same night of individual treatment days. Imaging was performed with a Nikon TI Eclipse inverted microscope using a Ti: Sapphire laser Chameleon Ultra II at 860 nm as the light source and a Nikon Apo LWD 20× objective for focusing. The emission filter was set at the FITC channel (475-650 nm, peak 525 nm) for autofluorescence signal collection and at the DAPI channel (400-600 nm, peak at 457 nm) for SHG signal collection. The XY scanning area for each sample was 635 μm by 635 μm, and Z scanning was 100 μm deep with 10 μm increments (stack of 11 images per sample). The summation of the average grey value processed in Image J at each layer was used as the representative signal strength for each sample.

| Substance | equilibrium modulus change ([1]; 20% Dextran + femtosecond laser 755-760 nm ~850 mW, coverslip, without oxygen) | equilibrium modulus change vs paired control (words) [1] | viscoelastic ratio change vs paired control (words) [1] | viscoelastic ratio change vs paired control (words) ([1]; listed as riboflavin) | equilibrium modulus change vs paired control (words) ([1]; listed as riboflavin) | equilibrium modulus ([1]; Group 1D positive control: Dresden protocol, 0.1% R5P in 20% dextran 500 + UVA) | second harmonic generation signal intensity change vs paired control (words) ([2]; Dresden protocol vs R5P exposed control) | autofluorescence signal intensity change vs paired control (words) ([2]; Dresden protocol vs R5P only control) |
| --- | --- | --- | --- | --- | --- | --- | --- | --- |
| Dextran | significantly increased the equilibrium modulus of the cornea, but the magnitudes are small |  |  |  |  |  |  |  |
| riboflavin-5-phosphate [R5P, reference compound] |  | statistically significant differences | more elastic response; also recorded: significantly different time-dependent elastic response | significant increase; also recorded: significantly increased | significantly increased | 100 kPa | increased SHG signal; also recorded: statistically significant increase; also recorded: Statistical significance | increased; also recorded: Statistical significance |
